This test concerns the target T1, F508del (Homo sapiens, UniProt P13569, DEL508-508).
T1 construct: expressed in transfected cells
Nature of the test: Protocol 2: FRET membrane potential optical assay (VIPR), identification of correction compounds. Type of test: cell-based. The method in brief:
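Mouse NIH3T3 cells, stable F508del; cpd 16 hrs, 37° C., serum-free; pos ctrl 27° C. 16 hrs. Rinse in Krebs Ringers, dye load, then add 10 μM forskolin + 20 μM genistein with Cl^−-free (gluconate) medium; depolarization by FRET voltage dyes.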

[1] abbreviates: Table 3, compounds of Table 1 as modulators of CFTR activity, protocol not stated.
[2] abbreviates: F508del CFTR modulator activity, compounds of Table 1, read-out: EC30.

Read-outs that look alike come from different tables or passages of the source.

T1 sequence (P13569 with tags, fused parts or gaps DEL508-508): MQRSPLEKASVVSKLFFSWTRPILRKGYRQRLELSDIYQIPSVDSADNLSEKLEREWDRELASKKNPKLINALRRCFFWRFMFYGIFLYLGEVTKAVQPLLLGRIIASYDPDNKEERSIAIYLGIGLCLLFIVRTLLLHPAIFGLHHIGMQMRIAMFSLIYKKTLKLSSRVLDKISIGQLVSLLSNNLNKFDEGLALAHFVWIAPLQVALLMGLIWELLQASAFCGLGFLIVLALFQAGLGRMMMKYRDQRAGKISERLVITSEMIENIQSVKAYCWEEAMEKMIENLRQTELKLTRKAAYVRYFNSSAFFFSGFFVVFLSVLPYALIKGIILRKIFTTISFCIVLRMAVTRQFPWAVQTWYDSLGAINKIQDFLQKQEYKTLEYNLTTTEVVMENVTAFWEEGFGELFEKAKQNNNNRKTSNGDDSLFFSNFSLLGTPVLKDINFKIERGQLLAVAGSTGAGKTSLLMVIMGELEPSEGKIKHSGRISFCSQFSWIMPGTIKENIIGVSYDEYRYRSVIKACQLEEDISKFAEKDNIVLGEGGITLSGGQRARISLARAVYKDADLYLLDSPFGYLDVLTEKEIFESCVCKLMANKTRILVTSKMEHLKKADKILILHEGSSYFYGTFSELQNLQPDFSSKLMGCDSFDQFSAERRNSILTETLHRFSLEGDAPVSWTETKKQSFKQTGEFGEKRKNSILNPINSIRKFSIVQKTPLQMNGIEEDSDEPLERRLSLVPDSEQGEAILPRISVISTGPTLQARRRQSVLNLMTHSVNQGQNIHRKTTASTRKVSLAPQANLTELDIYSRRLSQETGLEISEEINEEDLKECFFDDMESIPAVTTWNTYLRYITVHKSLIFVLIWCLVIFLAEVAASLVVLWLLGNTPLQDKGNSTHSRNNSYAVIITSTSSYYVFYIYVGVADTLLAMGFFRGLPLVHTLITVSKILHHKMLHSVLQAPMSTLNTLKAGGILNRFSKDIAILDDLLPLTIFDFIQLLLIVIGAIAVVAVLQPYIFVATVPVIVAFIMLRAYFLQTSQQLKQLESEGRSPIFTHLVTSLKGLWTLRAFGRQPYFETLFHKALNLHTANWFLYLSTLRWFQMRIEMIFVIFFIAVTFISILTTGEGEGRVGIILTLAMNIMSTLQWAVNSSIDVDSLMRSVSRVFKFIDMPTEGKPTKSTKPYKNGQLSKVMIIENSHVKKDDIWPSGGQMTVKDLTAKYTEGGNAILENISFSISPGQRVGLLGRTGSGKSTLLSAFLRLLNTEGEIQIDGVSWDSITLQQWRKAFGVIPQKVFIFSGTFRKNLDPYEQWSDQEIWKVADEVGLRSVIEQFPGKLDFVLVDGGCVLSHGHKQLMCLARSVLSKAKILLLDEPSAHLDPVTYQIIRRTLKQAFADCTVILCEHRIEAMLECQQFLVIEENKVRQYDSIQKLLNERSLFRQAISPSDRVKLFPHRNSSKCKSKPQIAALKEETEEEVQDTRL

For the compound `CC[C@@H]1CCCN1c1nc(-c2cc(F)cc(OCC(C)C)c2)ccc1C(=O)NS(=O)(=O)c1ccn[nH]1` [Compound 591, 2-(2-ethylpyrrolidin-1-yl)-6-(3-fluoro-5-isobutoxy-phenyl)-N-(1H-pyrazol-5-ylsulfonyl)pyridine-3-carboxamide], the EC30 entry under setting [1] is “+++ (“+++” means <3 uM)”. On the same count and under the same terms, the value for `Cc1cccc(C)c1Cn1nc(-c2ccccc2F)cc1C(=O)NS(=O)(=O)c1ccccc1` [Compound 109, N-(benzenesulfonyl)-2-[(2,6-dimethylphenyl)methyl]-5-(2-fluorophenyl)pyrazole-3-carboxamide] was “+++ (“+++” means <3 uM)”. Regarding `COc1ccc(-c2ccc(C(=O)NS(=O)(=O)c3cccnc3N)c(N3C[C@@H](C)CC3(C)C)n2)c(OC)n1` [Compound 2091, N-[(2-amino-3-pyridyl)sulfonyl]-6-(2,6-dimethoxy-3-pyridyl)-2-[(4S)-2,2,4-trimethylpyrrolidin-1-yl]pyridine-3-carboxamide], under setting [2], the EC30 was less than 3000 nM. Consider `CC(C)(C)c1ccc(C(=O)NS(=O)(=O)c2ccccc2)c(OCc2ccccc2)n1` [Compound 130, N-(benzenesulfonyl)-2-benzyloxy-6-tert-butyl-pyridine-3-carboxamide], for which the EC30 result under setting [1] is given as “+++ (“+++” means <3 uM)”. Consider `Cc1noc(C)c1-c1ccc(C(=O)NS(=O)(=O)c2cccnc2N)c(N2C[C@@H](C)CC2(C)C)n1` [Compound 2215, N-[(2-amino-3-pyridyl)sulfonyl]-6-(3,5-dimethylisoxazol-4-yl)-2-[(4S)-2,2,4-trimethylpyrrolidin-1-yl]pyridine-3-carboxamide], for which the EC30 under setting [2] was in the range of 3000 to 10000 nM.

For `CC1CN(c2ncccc2C(=O)NS(=O)(=O)c2cccc(OCc3ccc(F)cc3)n2)C(C)(C)C1` (centres unmarked) [Compound 2524, N—[[6-[(4-fluorophenyl)methoxy]-2-pyridyl]sulfonyl]-2-(2,2,4-trimethylpyrrolidin-1-yl)pyridine-3-carboxamide], under setting [2], the EC30 is less than 3000 nM. As for `CC(C)COc1cc(F)cc(-c2ccc(C(=O)NS(=O)(=O)c3ccn[nH]3)c(N3CCCC(C(C)C)C3)n2)c1` (centres unmarked) [Compound 498, 6-(3-fluoro-5-isobutoxy-phenyl)-2-(3-isopropyl-1-piperidyl)-N-(1H-pyrazol-5-ylsulfonyl)pyridine-3-carboxamide], the EC30 result under setting [1] was “+++ (“+++” means <3 uM)”. As to `Cc1ccc(-c2ccc(C(=O)NS(=O)(=O)c3cccnc3N)c(N3C[C@@H](C)CC3(C)C)n2)c(F)c1` [Compound 2613, N-[(2-amino-3-pyridyl)sulfonyl]-6-(2-fluoro-4-methyl-phenyl)-2-[(4S)-2,2,4-trimethylpyrrolidin-1-yl]pyridine-3-carboxamide], the EC30 under setting [2] was less than 3000 nM.

Consider `CC1CN(c2nc(-c3ccnc(OC(C)C)c3)ccc2C(=O)NS(=O)(=O)c2cccc(N)n2)C(C)(C)C1` (centres unmarked) [Compound 402, N-[(6-amino-2-pyridyl)sulfonyl]-6-(2-isopropoxy-4-pyridyl)-2-(2,2,4-trimethylpyrrolidin-1-yl)pyridine-3-carboxamide], for which the EC30 entry under setting [1] is on record as “+++ (“+++” means <3 uM)”.

Take `CCCOc1cc(-c2ccc(C(=O)NS(=O)(=O)c3cccc(N)n3)c(N3CC(C)CC3(C)C)n2)ccn1` (centres unmarked) [Compound 491, N-[(6-amino-2-pyridyl)sulfonyl]-6-(2-propoxy-4-pyridyl)-2-(2,2,4-trimethylpyrrolidin-1-yl)pyridine-3-carboxamide]: the EC30 result under setting [1] is recorded as “+++ (“+++” means <3 uM)”. As for `Cc1cccc(C)c1Cn1nc(-c2ccccc2C(F)(F)F)cc1C(=O)NS(=O)(=O)c1ccccc1` [Compound 369, N-(benzenesulfonyl)-2-[(2,6-dimethylphenyl)methyl]-5-[2-(trifluoromethyl)phenyl]pyrazole-3-carboxamide], under setting [1], the EC30 result is “+++ (“+++” means <3 uM)”. For `CC1CN(c2ncccc2C(=O)NS(=O)(=O)c2cccc(OCc3cccc(N(C)C)c3)n2)C(C)(C)C1` (centres unmarked) [Compound 2012, N—[[6-[[3-(dimethylamino)phenyl]methoxy]-2-pyridyl]sulfonyl]-2-(2,2,4-trimethylpyrrolidin-1-yl)pyridine-3-carboxamide], under setting [2], the 30% effect concentration (EC30) is less than 3000 nM. As for `CC1CN(c2ncccc2C(=O)NS(=O)(=O)c2cccc(Nc3cnc4ccccc4c3)n2)C(C)(C)C1` (centres unmarked) [Compound 2449, N—[[6-(3-quinolylamino)-2-pyridyl]sulfonyl]-2-(2,2,4-trimethylpyrrolidin-1-yl)pyridine-3-carboxamide], under setting [2], the 30% effect concentration (EC30) was less than 3000 nM. On the same count and under the same terms, the figure for `COc1ccc(CNc2cccc(S(=O)(=O)NC(=O)c3cccnc3N3CC(C)CC3(C)C)n2)cc1` (centres unmarked) [Compound 2579, N—[[6-[(4-methoxyphenyl)methylamino]-2-pyridyl]sulfonyl]-2-(2,2,4-trimethylpyrrolidin-1-yl)pyridine-3-carboxamide] is less than 3000 nM. Turning to `Cc1cc(C)c(Oc2nc(C(C)(C)C)ccc2C(=O)NS(=O)(=O)c2ccncc2)c(C)c1` [Compound 117, 6-tert-butyl-N-(4-pyridylsulfonyl)-2-(2,4,6-trimethylphenoxy)pyridine-3-carboxamide], under setting [1], the EC30 result is “+++ (“+++” means <3 uM)”. With `CC(C)Oc1ccc(-c2ccc(C(=O)NS(=O)(=O)c3cccc(N)n3)c(N3CCC(c4ccccc4)CC3)n2)cn1` [Compound 742, N-[(6-amino-2-pyridyl)sulfonyl]-6-(6-isopropoxy-3-pyridyl)-2-(4-phenyl-1-piperidyl)pyridine-3-carboxamide], the EC30 result under setting [1] is “+++ (“+++” means <3 uM)”. For `CC1CN(c2ncccc2C(=O)NS(=O)(=O)c2cccc(OCc3ccc(Cl)cc3F)n2)C(C)(C)C1` (centres unmarked) [Compound 2182, N—[[6-[(4-chloro-2-fluoro-phenyl)methoxy]-2-pyridyl]sulfonyl]-2-(2,2,4-trimethylpyrrolidin-1-yl)pyridine-3-carboxamide], the EC30 under setting [2] was less than 3000 nM.

Take `CC1CN(c2ncccc2C(=O)NS(=O)(=O)c2cccc(Oc3cccc4[nH]ccc34)n2)C(C)(C)C1` (centres unmarked) [Compound 2338, N—[[6-(1H-indol-4-yloxy)-2-pyridyl]sulfonyl]-2-(2,2,4-trimethylpyrrolidin-1-yl)pyridine-3-carboxamide]: the EC30 under setting [2] is less than 3000 nM. Turning to `CC1CN(c2ncccc2C(=O)NS(=O)(=O)c2cccc(Nc3ccc(F)c(F)c3)n2)C(C)(C)C1` (centres unmarked) [Compound 2341, N—[[6-(3,4-difluoroanilino)-2-pyridyl]sulfonyl]-2-(2,2,4-trimethylpyrrolidin-1-yl)pyridine-3-carboxamide], the EC30 under setting [2] is less than 3000 nM. For the compound `Cc1cccc(C)c1Cn1nc(C(C)(C)C)cc1C(=O)NS(=O)(=O)c1ccc(N)cc1` [Compound 81, N-(4-aminophenyl)sulfonyl-5-tert-butyl-2-[(2,6-dimethylphenyl)methyl]pyrazole-3-carboxamide], the 30% effect concentration (EC30) entry under setting [1] is listed as “+++ (“+++” means <3 uM)”. Consider `C[C@@H]1CN(c2nc(-c3ccccc3)ccc2C(=O)NS(=O)(=O)c2ccccc2)C(C)(C)C1` [Compound 2092, N-(benzenesulfonyl)-6-phenyl-2-[(4S)-2,2,4-trimethylpyrrolidin-1-yl]pyridine-3-carboxamide], for which the EC30 under setting [2] was less than 3000 nM. On the same count and under the same terms, the value for `COc1cc(F)ccc1-c1ccc(C(=O)NS(=O)(=O)c2cccnc2N)c(N2C[C@@H](C)CC2(C)C)n1` [Compound 2482, N-[(2-amino-3-pyridyl)sulfonyl]-6-(4-fluoro-2-methoxy-phenyl)-2-[(4S)-2,2,4-trimethylpyrrolidin-1-yl]pyridine-3-carboxamide] was less than 3000 nM. For `COc1cccc(S(=O)(=O)NC(=O)c2ccc(C(C)(C)C)nc2Oc2c(C)cc(C)cc2C)n1` [Compound 34, 6-tert-butyl-N-[(6-methoxy-2-pyridyl)sulfonyl]-2-(2,4,6-trimethylphenoxy)pyridine-3-carboxamide], under setting [1], the EC30 entry is recorded as “+++ (“+++” means <3 uM)”. On the same count and under the same terms, the entry for `CC(C)COc1cc(F)cc(-c2ccc(C(=O)NS(=O)(=O)c3cccc(N)n3)c(N3C[C@@H]4CC[C@@H](C4)C3)n2)c1` [Compound 581, N-[(6-amino-2-pyridyl)sulfonyl]-2-[(1R,5S)-3-azabicyclo[3.2.1]octan-3-yl]-6-(3-fluoro-5-isobutoxy-phenyl)pyridine-3-carboxamide] is “+++ (“+++” means <3 uM)”; for `Cc1cc(C)c(Oc2nc(-c3ccccc3)ccc2C(=O)NS(=O)(=O)c2cccc(N)n2)c(C)c1` [Compound 203, N-[(6-amino-2-pyridyl)sulfonyl]-6-phenyl-2-(2,4,6-trimethylphenoxy)pyridine-3-carboxamide] it is “+++ (“+++” means <3 uM)”. For `Cc1ccc(-c2ccc(C(=O)NS(=O)(=O)c3cccnc3N)c(N3C[C@@H](C)CC3(C)C)n2)c2ccccc12` [Compound 2126, N-[(2-amino-3-pyridyl)sulfonyl]-6-(4-methyl-1-naphthyl)-2-[(4S)-2,2,4-trimethylpyrrolidin-1-yl]pyridine-3-carboxamide], the EC30 under setting [2] is less than 3000 nM. Same read-out and setting: the figure for `CC1CN(c2ncccc2C(=O)NS(=O)(=O)c2cccc(OCc3ccc(C(C)(C)C)cc3)n2)C(C)(C)C1` (centres unmarked) [Compound 2286, N—[[6-[(4-tert-butylphenyl)methoxy]-2-pyridyl]sulfonyl]-2-(2,2,4-trimethylpyrrolidin-1-yl)pyridine-3-carboxamide] is less than 3000 nM. Regarding `CC(C)Oc1ccc(-c2ccc(C(=O)NS(=O)(=O)c3cccc(N)n3)c(N3CCCC(c4ccccn4)C3)n2)cn1` (centres unmarked) [Compound 489, N-[(6-amino-2-pyridyl)sulfonyl]-6-(6-isopropoxy-3-pyridyl)-2-[3-(2-pyridyl)-1-piperidyl]pyridine-3-carboxamide], the EC30 entry under setting [1] was “+++ (“+++” means <3 uM)”. Consider `C[C@@H]1CN(c2nc(-c3ccccc3O)ccc2C(=O)NS(=O)(=O)c2ccc[nH]c2=O)C(C)(C)C1` [Compound 2480, 6-(2-hydroxyphenyl)-N-[(2-oxo-1H-pyridin-3-yl)sulfonyl]-2-[(4S)-2,2,4-trimethylpyrrolidin-1-yl]pyridine-3-carboxamide], for which the 30% effect concentration (EC30) under setting [2] was in the range of 3000 to 10000 nM.

These data come from US10758534B2 (Vertex Pharmaceuticals Incorporated, priority 2014, dated 2020).
